# Data as given in the NIST ThermoML archive (doi:10.1021/je5009729).
# Numbers after ± are expanded uncertainties.
# Legend:
# [1] = for vapor or sublimation pressure: Gas chromatography; for Normal melting temperature / Triple point temperature: DTA
# [2] = Molar enthalpy of transition or fusion; settings: DSC
smiles,measurement,setting,value
CCCCCCCC/C=C\CCCCCCCCCC(=O)O [(11Z)-eicosenoic acid],vapor or sublimation pressure,"[1]; 298.15 K, Liquid",1.18e-09 kPa
CCCCCCCCCCCCCCCCCCCCCCCC(=O)O [lignoceric acid],vapor or sublimation pressure,"[1]; 298 K, Crystal",4e-14 kPa
same,vapor or sublimation pressure,"[1]; 298.15 K, Liquid",1.1e-11 kPa
same,Normal melting temperature,[1]; Crystal 1,83.4 ± 0.5 °C
same,Triple point temperature,[1]; Crystal 2,351 ± 1 K
same,Triple point temperature,[1]; Crystal 3,347 ± 1 K
same,Molar enthalpy of transition or fusion,[2]; Crystal 1,20.2 ± 0.454 kcal/mol
same,Molar enthalpy of transition or fusion,[2]; Crystal 3,1.18 ± 0.0621 kcal/mol
CCCCCCCCCCC/C=C\CCCCC(=O)O [(Z)-6-octadecenoic acid],vapor or sublimation pressure,"[1]; 298.15 K, Liquid",1.13e-08 kPa
CCCCCCCC/C=C\CCCCCCCCCCCCCC(=O)O [(Z)-tetracos-15-enoic acid],vapor or sublimation pressure,"[1]; 298 K, Crystal",2.7e-12 kPa
same,vapor or sublimation pressure,"[1]; 298.15 K, Liquid",1e-11 kPa
same,Normal melting temperature,[1]; Crystal,42 ± 1 °C
same,Molar enthalpy of transition or fusion,[2]; Crystal,14.4 ± 0.359 kcal/mol
CCCCCCCC/C=C\CCCCCCCC(=O)O [(Z)-9-octadecenoic acid],vapor or sublimation pressure,"[1]; 298.15 K, Liquid",1.01e-08 kPa
CCCCCC/C=C\CCCCCCCC(=O)O [cis-9-hexadecenoic acid],vapor or sublimation pressure,"[1]; 298.15 K, Liquid",6.9e-08 kPa
"CC/C=C\C/C=C\C/C=C\C/C=C\C/C=C\C/C=C\CCC(=O)O [cis-4,7,10,13,16,19-docosahexaenoic acid]",vapor or sublimation pressure,"[1]; 298.15 K, Liquid",2.2e-11 kPa
CCCCCCCCCCCCCCCCCCCCCCCCCC(=O)O [hexacosanoic acid],vapor or sublimation pressure,"[1]; 298.15 K, Crystal",8e-15 kPa
same,vapor or sublimation pressure,"[1]; 298.15 K, Liquid",2.5e-12 kPa
same,Normal melting temperature,[1]; Crystal 1,85.7 ± 0.7 °C
same,Triple point temperature,[1]; Crystal 2,354.3 ± 0.5 K
same,Molar enthalpy of transition or fusion,[2]; Crystal 2,21.2 ± 0.621 kcal/mol
"CCCCCC=CCC=CCC=CCC=CCCCC(=O)O [5,8,11,14-eicosatetraenoic acid]",vapor or sublimation pressure,"[1]; 298.15 K, Liquid",6.5e-10 kPa
